Source: patent US5770625A, “Butyryl-tyrosinyl spermine, analogs thereof and methods of preparing and using same” (priority 1994, dated 1998)
“Also recorded” adds a separate entry of the source. Read-outs that look alike come from different tables or passages of the source.

Tested on: postsynaptic QUIS-R of locust leg muscle
Test: Antagonism of neurally-evoked twitch contraction of locust retractor unguis nerve-muscle preparation
Set-up: species or system Schistocerca gregaria
Conditions: for IC50: read-out: IC50
Source text: Electrophysiological studies. The metathoracic retractor unguis nerve-muscle preparation of the locust Schistocerca gregaria was dissected and mounted in a small Perspex bath as described previously (21). The pharmacological activity on the locust nerve muscle preparation, using reduction in neurally evoked twitch amplitude as the measure of activity. Ten fractions were pharmacologically active. […] Further purification of this fraction by reverse-phase HPLC gave four peaks (FIG. 2B), the most pharmacologically was in the major peak (hatched FIG. 2B) . This fraction gave 1.1 mg of toxin as amorphous powder.
The retractor unguis muscle and its nerve were dissected from the metathoracic legs of adult, female locusts (Schistocerca gregaria) and mounted in a Perspex perfusion chamber as described by Usherwood and Machili (21) and Bateman, et al. (14). The muscle was stretched to maximal body length and attached at its tendon or apodeme to a Grass FT 10-strain gauge by a short length of nylon thread. The volume of the muscle bath was about 0.5 ml and its contents could be exchanged within 1 sec. The preparation was perfused continuously at the rate of 5-10 ml min^-1 (except during the application of toxin (see below)) with standard locust saline of the following composition (mM): NaCl, 180; KCl, 10; CaCl2, 2; Hepes, 10; buffered to pH 6.8. The retractor unguis muscle is innervated by two excitatory motoneurons (30) and an inhibitory motoneuron (19,32), but the influence of the latter on the responsiveness of the muscle is slight. Maximal stimulation of the retractor unguis nerve at 0.2 Hz produced a series of twitch contractions of constant amplitude, which were maintained for many hours in good preparations. The test compounds were kept at -20° C. They were dissolved in locust saline on the day of the assay and tested at room temperature. The compounds were applied by pipette to a nerve-muscle preparation such that the contents of the perfusion bath were completely replaced by the test solution. Exposure to the test compound lasted 20 min. Because of the limited availability of some of the compounds, the preparation was not perfused during this period. However, the amplitude of the retractor unguis muscle twitch rarely changed by more than 5-10% over a 20 minute period. During application of the test solutions the stimulation frequency was raised to 0.6 Hz for brief periods to test for stimulus frequency-dependent effects on twitch amplitude (31,37). Dose-inhibition data were obtained by testing the effects, on single retractor unguis muscle preparations, of a range of concentrations of the test compounds. Each concentration of the respective samples was tested at least thee times, and each compound was assayed usually over a 100-fold concentration range (a total of 7-10 concentrations). The standard deviations for twitch inhibition for any given concentration of a toxin rarely exceed 10%. Those compounds for which the deviation was greater than this are identified in Tables 1-7. There was some variation in the potency of PhTX-343 and the test compounds between nerve-muscle preparations. In order to compensate for this, the following procedure was adopted: PhTX-343 was assayed at a variety of concentrations on eight retractor unguis nerve-muscle preparations to give a cumulative dose-inhibition relationship for this toxin. The concentration of PhTX-343 which reduced the twitch contraction by 50% (IC50) was then determined by fitting a curve to the data using the following equation: [formula] where: [T]= toxin concentration, I= % inhibition, Imax =maximum inhibition= 100% and n' represents the Hill slope coefficient. […] The ratio of the actual reduction in twitch amplitude obtained with this single concentration of PhTX-343 and the 50% reduction that was anticipated from the cumulative dose-inhibition relationship for this toxin, was then used as a factor to normalize the data for the test compound. […]

[1] = Table 1, region A modifications, 20 min exposure, normalized with PhTX-343, ** SD < 30%
[2] = Table 1, relative to PhTX-343 = 1.0
[3] = Table 3, region C modifications
[4] = Table 3, relative to PhTX-343 = 1.0
[5] = Table 2, region B modifications, * SD < 20%
[6] = Table 2, relative to PhTX-343 = 1.0
[7] = Table 5, modifications to more than one region
[8] = Table 4, terminal amino group modifications, * SD < 20%
[9] = Table 4, relative to PhTX-343 = 1.0
[10] = Table 7, mono-acyl spermine analogues

CCCC(=O)N[C@@H](Cc1ccc(O)cc1)C(=O)NCCCNCCCNCCCCN [drawing 23]
IC50 [1]: 15 µM | Relative Potency [2]: 1.5

NCCCNCCCCNCCCNC(=O)[C@H](Cc1ccc(O)cc1)NC(=O)CCCCCNC(=O)CCCCC1SCC2NC(=O)NC21 (some centres unmarked)
IC50 (M) [3]: insol.

NCCCNCCCCNCCCNC(=O)[C@H](Cc1ccc(O)cc1)NC(=O)/C=C/c1ccccc1 [Compound 25]
potency compared with PhTX-343 or other analogues (in words): greatly increased potency

NCCCNCCCCNCCCNC(=O)[C@H](Cc1ccc(O)cc1)NC(=O)CCCNc1ccc([N+](=O)[O-])cc1[N+](=O)[O-]
IC50 [3]: 53 µM | Relative Potency [4]: 0.4

CCCC(=O)NCC(=O)NCCCNCCCCNCCCN [drawing 38]
IC50 [5]: 130 µM | Relative Potency [6]: 0.2

CCCC(=O)N[C@@H](Cc1cc(I)c(O)c(I)c1)C(=O)NCCCNCCCCNCCCNC(=O)[C@@H](N)CCCCN [drawing 65]
IC50 [7]: 1.7 µM | Relative Potency (Table 5, relative to PhTX-343): 14

NCCCNCCCCNCCCNC(=O)[C@H](Cc1ccc(O)cc1)NC(=O)c1ccccc1 [Compound 23]
potency compared with PhTX-343 or other analogues (in words): equipotent with the C10 analogue 20

CCCCCCCCCC(=O)NCCCNCCCCNCCCNC(=O)CCCCCCCCC [Compound 52, bis-C10 -spermine]
potency compared with PhTX-343 or other analogues (in words): as active as PhTX-343; also recorded: relatively high potencies

CCCC(=O)N[C@@H](Cc1c[nH]c2ccccc12)C(=O)NCCCNCCCCNCCCN [drawing 39]
IC50 [5]: 2.5 µM | Relative Potency [6]: 9.2

CCCC(=O)N[C@@H](Cc1ccc(O)cc1)C(=O)NCCCCNCC(C)CNCCCN (some centres unmarked) [drawing 27]
IC50 [1]: 40 µM | Relative Potency [2]: 0.6

CCCC(=O)N[C@@H](Cc1ccc(O)cc1)C(=O)NCCCNCCCCNCCCN [drawing 31]
IC50 [5]: 23 µM | Relative Potency [6]: 1.0

NCCCNCCCCNCCCNC(=O)[C@H](Cc1ccc(O)cc1)NC(=O)Cc1ccccc1 [drawing 48]
IC50 [3]: 12 µM | Relative Potency [4]: 0.5

CCCC(=O)N[C@@H](Cc1ccc(O)cc1)C(=O)NCCCNCCCCNCCCNC(=O)C(N)CCCCNC(=O)C(N)CCCCN (some centres unmarked) [drawing 63]
IC50 [8]: 11 µM | Relative Potency [9]: 2.1

[N-]=[N+]=Nc1ccc(C(=O)N[C@@H](Cc2ccc(O)cc2)C(=O)NCCCNCCCCNCCCNC(=O)[C@@H](N)CCCCN)cc1 [Compound 40, N-(p-azidobenzamide)-L-tyrosyl-spermine-L-lysine-triamide]
IC50 [7]: 3.3 µM | Relative Potency (Table 5, relative to PhTX-343): 7

CCCC(=O)N[C@@H](Cc1ccc(O)cc1)C(=O)NCCCNCCCCNCCCNC(=O)CCCN [drawing 60]
IC50 [8]: 68 µM | Relative Potency [9]: 0.3

CCCCC(CNCCCN)CNCCCCNC(=O)[C@H](Cc1ccc(O)cc1)NC(=O)CCC (some centres unmarked) [drawing 28]
IC50 [1]: 4 µM | Relative Potency [2]: 5.6

CCCC(=O)N[C@@H](Cc1ccc(O)cc1)C(=O)NCCCNCCCCNCCCNC(=O)[C@@H](N)CCCNC(=N)N [Compound 36, PhTX-343-L-arginine-amide]
potency compared with PhTX-343 or other analogues (in words): increased potency

CCCC(=O)N[C@@H](Cc1ccc(O)cc1)C(=O)NCCCNCCCCNCCCNC(=O)C(N)CCCCN (some centres unmarked) [drawing 61]
IC50 [8]: 13 µM | Relative Potency [9]: 1.8

CCCC(=O)N[C@@H](Cc1ccc(O)cc1)C(=O)NCCCNCCCCNCCCNC(=O)[C@@H](N)CCCNC(=N)N [drawing 62]
IC50 [8]: 6.3 µM | Relative Potency [9]: 3.7

[N-]=[N+]=Nc1ccc(C(=O)N[C@@H](Cc2cc(I)c(O)c(I)c2)C(=O)NCCCNCCCCNCCCNC(=O)[C@@H](N)CCCCN)cc1 [Compound 41, N- (.rho.-azidobenzamide)-di-iodo-L-tyrosyl-spermine-L-lysine-triamide]
potency compared with PhTX-343 or other analogues (in words): more potent than the latter

CCCC(=O)N[C@@H](Cc1c[nH]c2ccccc12)C(=O)NCCCNCCCCNCCCN [Compound 17]
increase in potency compared with PhTX-343: 10 fold

[N-]=[N+]=C(C(=O)NCCCC(=O)N[C@@H](Cc1ccc(O)cc1)C(=O)NCCCNCCCCNCCCN)C(F)(F)F [drawing 51]
IC50 [3]: 290 µM | Relative Potency [4]: 0.1

NCCCNCCCCNCCCNC(=O)[C@H](Cc1ccc(O)cc1)NC(=O)C1CCCCC1 [Compound 22]
potency compared with PhTX-343 or other analogues (in words): equal to that of compound 19

CCCC(=O)N[C@@H](CC(C)C)C(=O)NCCCNCCCCNCCCN [drawing 36]
IC50 [5]: 23 µM | Relative Potency [6]: 1.0

[N-]=[N+]=Nc1ccc(C(=O)N[C@@H](Cc2ccc(O)cc2)C(=O)NCCCNCCCCNCCCN)cc1 [drawing 50]
IC50 [3]: 4.2 µM | Relative Potency [4]: 5.5

CCCC(=O)N[C@@H](Cc1ccc(O)cc1)C(=O)NCCCNCCCCNCCCNC(=O)CN [Compound 33]
potency compared with PhTX-343 or other analogues (in words): potency was reduced

CCCC(=O)N[C@@H](Cc1ccc(O)cc1)C(=O)NCCCNCCCCNCCCNC(=O)C(N)CCCCN (some centres unmarked) [Compound 35]
potency compared with PhTX-343 or other analogues (in words): increased potency

CC(=O)N[C@@H](Cc1ccc(O)cc1)C(=O)NCCCNCCCCNCCCN [Compound 18]
potency compared with PhTX-343 or other analogues (in words): slight but significant reduction in potency

NCCCNCCCCNCCCNC(=O)[C@H](Cc1ccc(O)cc1)NC(=O)Cc1ccccc1 [Compound 24]
potency compared with PhTX-343 or other analogues (in words): less potent than PhTX-343

C/C=C/C=C/C(=O)N[C@@H](Cc1ccc(O)cc1)C(=O)NCCCNCCCCNCCCN [Compound 21]
potency compared with PhTX-343 or other analogues (in words): very potent

CCCC(=O)N[C@@H](Cc1cc(I)c(O)c(I)c1)C(=O)NCCCNCCCCNCCCNC(=O)[C@@H](N)CCCCN [Compound 38, diiodo-PhTX-lysine]
potency compared with PhTX-343 or other analogues (in words): more potent than PhTX-343

CCCC(=O)N[C@@H](Cc1ccc(OCc2ccccc2)cc1)C(=O)NCCCNCCCCNCCCN [Compound 12, N-butyryl-O-benzyl-L-tyrosine-spermineamide]
potency compared with PhTX-343 or other analogues (in words): unchanged potencies

CCCC(=O)N[C@@H](Cc1ccc(O)cc1)C(=O)NCCCCNCCCNCCCN [drawing 22]
IC50 [1]: 18 µM | Relative Potency [2]: 1.3

CCCC(=O)NCCCNCCCCNCCCN
IC50 (M) [10]: agonist

CCCC(=O)N[C@@H](Cc1cc(I)c(O)c(I)c1)C(=O)NCCCNCCCCNCCCNC(=O)[C@@H](N)CCCNC(=N)N [drawing 66]
IC50 [7]: 0.7 µM | Relative Potency (Table 5, relative to PhTX-343): 33

CCCC(=O)N[C@@H](Cc1ccc(O)cc1)C(=O)NCCCNCCCCNCCCN [drawing 41]
IC50 [3]: 23 µM | Relative Potency [4]: 1.0

CCCC(=O)N[C@@H](Cc1ccc(O)cc1)C(=O)NCCCNCCCCNCCCN [drawing 57]
IC50 [8]: 23 µM | Relative Potency [9]: 1.0

CCCC(=O)N[C@@H](Cc1ccc(O)cc1)C(N)=O [drawing 26]
IC50 [1]: 500 µM | Relative Potency [2]: 0.05

CCCC(=O)N[C@@H](Cc1ccc(O)cc1)C(=O)NCCC[N+](C)(C)CCCC[N+](C)(C)CCC[N+](C)(C)C [drawing 29]
IC50 [1]: 130 µM | Relative Potency [2]: 0.2

CCCCCCC(=O)NCCCNCCCCNCCCN [drawing 77]
IC50 [10]: 100 µM | Relative Potency (Table 7, mono-acyl spermine analogues, relative to PhTX-343): 0.2

C/C=C/C=C/C(=O)N[C@@H](Cc1ccc(O)cc1)C(=O)NCCCNCCCCNCCCN [drawing 45]
IC50 [3]: 1.6 µM | Relative Potency [4]: 14.0

CCCCCCC(=O)NCCCNCCCCNCCCNC(=O)CCCCCC
IC50 (M) (Table 7, bis-acyl spermine analogues): agonist

CCCC(=O)NCC(=O)NCCCNCCCCNCCCN [Compound 16, N-butyryl-L-glycine-spermine-amide]
potency compared with PhTX-343 or other analogues (in words): greatly reduced activity
